Tests used:
[1] = Urinary excretion in rats after oral administration; format: in vivo; conditions: rat, urine, 20 mg/kg, bioassay, read-out: Urinary recovery in 24 hours (%)
Description: Urine of rats was collected with a urine collector at 0 to 6, and 6 to 24 hours after oral administration of 20 mg/kg of the test antibiotic. The antibiotic levels in the urine samples were bioassayed with the standard solution prepared with M/15 phosphate buffer (pH 7.0) and the urinary recovery in 24 hours was calculated.

in vivo = conditions: rat, po, 20 mg/kg
Description: Rats anesthetized with pentobarbital were fixed in supine position, and a polyethylene cannula was inserted into the bile duct. Bile samples were collected at 0 to 3, 3 to 6, and 6 to 24 hours after oral administration of 20 mg/kg of the test antibiotic. The antibiotic levels in the bile samples were bioassayed with the standard solution prepared with M/15 phosphate buffer (pH 7.0) and the biliary recovery in 24 hours were calculated.

Proteus mirabilis 18 = experiment: In vitro antibacterial activity, two-fold agar-plate dilution method (MIC); format: cell-based; conditions: HI-agar, 37° C., 20 hours, read-out: MIC (minimal inhibitory concentration)
Description: (§1) In vitro antibacterial activity was determined by the two-fold agar-plate dilution method as described below.
(§2) One loopful of an overnight culture of each test strain in Trypticase-soy broth (10^8 viable cells per ml) was streaked on heart infusion agar (HI-agar) containing graded concentrations of representative test compound, and the minimal inhibitory concentration (MIC) was expressed in terms of μg/ml after incubation at 37° C. for 20 hours.

Proteus vulgaris 2 = experiment: as above; format: cell-based; conditions: HI-agar, 37° C., 20 hours, read-out: MIC (minimal inhibitory concentration)
Description: as §1, §2

dose excreted at 24 h [1]: 51.1%
dose excreted at 24 h (in vivo): 24.2%
MIC (Proteus mirabilis 18): < 0.025 µg/mL
MIC (Proteus vulgaris 2): < 0.025 µg/mL
SMILES: Nc1nc(/C(=N/OCC(=O)O)C(=O)NC2C(=O)N3C(C(=O)O)=C(/C=C/Cl)CSC23)cs1 (stereo not drawn) [A, 7-[2-Carboxymethoxyimino-2-(2-aminothiazol-4-yl)acetamido]-3-[(E)-2-chlorovinyl]-3-cephem-4-carboxylic acid (syn isomer)]

Reference: patent US4631274A, “Halovinyl cephem compounds” (Fujisawa Pharmceutical Co., Ltd., priority 1984, dated 1986)
